Columns and labels:
Gallus sp. = conditions: developmental; duration: 5 days; injection; White Leghorn
Mus musculus [1] = conditions: for LD50 / LC50: acute
Oryctolagus sp. = conditions: for LD50: acute
Rattus norvegicus [2] = conditions: for LD50 / LC50: acute
Mus musculus [3] = assay: LD0; higher = less toxic; conditions: acute; oral
Cavia porcellus = conditions: Guinea Pig
Monkey = conditions: subchronic; duration: 3 months; inhalation
Rattus norvegicus [4] = conditions: repeat dose other; oral
Rattus norvegicus [5] = conditions: chronic; oral; diet; M/F; liver toxicity
Canidae = conditions: chronic; duration: 16 months; oral; diet; M/F; Beagle; Urinary
Mus musculus [6] = conditions: developmental; duration: 7 days; oral; gavage; M/F; ICR; developmental
Rattus norvegicus [7] = conditions: chronic, oral, diet; for NOAEL: M, Wistar, immunological
Coturnix japonica = conditions: repeat dose other; oral
Mus musculus [8] = conditions: repeat dose other; oral
Cavia sp. = conditions: acute; Inhalation; Harley
[9] = subchronic, duration: 90 days, oral, diet
[10] = chronic, duration: 24 months, oral, diet, Sprague-Dawley
[11] = reproduction developmental, oral, diet, Sprague-Dawley, generation: F0
[12] = reproduction developmental, oral, diet, Sprague-Dawley, generation: F1
[13] = reproduction developmental, oral, diet, Sprague-Dawley, generation: F2
[14] = subchronic, duration: 8 weeks, oral, diet, Sprague-Dawley
[15] = subchronic, duration: 3 months, inhalation
[16] = subchronic, duration: 13 weeks, oral, gavage, B6C3F1
[17] = subchronic, duration: 13 weeks, oral, gavage, F33/N
[18] = subchronic, duration: 3 months, oral, diet

CCCCCCCCCc1ccc(OP(Oc2ccc(CCCCCCCCC)cc2)Oc2ccc(CCCCCCCCC)cc2)cc1 [Nonylphenolphosphite(3:1)]
NOAEL (Gallus sp.): 5 mg | LD50 (Mus musculus [1]; oral, gavage): > 10000 mg/kg | LD50 (Oryctolagus sp.; dermal, semiocclusive, New Zealand): > 2000 mg/kg | LD50 (Rattus norvegicus [2]; dermal, semiocclusive, RAI f1): > 2000 mg/kg | LD50 (Rattus norvegicus [2]; injection, Intraperitoneal, RAI f1): > 1000 mg/kg | NOAEL (Rattus norvegicus [2]; developmental, duration: 4 weeks, oral, gavage, Sprague-Dawley): 1000 mg/kg-day | NOAEL (Rattus norvegicus [2]; reproduction developmental, duration: 2 years, oral, diet, generation: F1): 3300 ppm | NOAEL (Rattus norvegicus [2]; reproduction developmental, duration: 4 weeks, oral, gavage, F, Sprague-Dawley): 1000 mg/kg-day | NOAEL (Rattus norvegicus [2]; reproduction developmental, duration: 4 weeks, oral, gavage, M, Sprague-Dawley): 200 mg/kg-day | NOAEL (Rattus norvegicus [2]; reproduction developmental, duration: 4 weeks, oral, gavage, Sprague-Dawley, generation: F0): 200 mg/kg-day | NOAEL (Rattus norvegicus [2]; reproduction developmental, duration: 4 weeks, oral, gavage, Sprague-Dawley, generation: F1): 200 mg/kg-day | NOAEL (% diet) (Rattus norvegicus [2]; subchronic, duration: 12 weeks, oral, diet): 1 | LOAEL (% diet) (Rattus norvegicus [2]; [9]): 5 | NOAEL (% diet) (Rattus norvegicus [2]; [9]): 1

O=C(Nc1ccc(Cl)cc1)Nc1ccc(Cl)c(Cl)c1 [Triclocarban]
LD50 (Mus musculus [1]; injection, Intraperitoneal): 2100 mg/kg | LD50 (Oryctolagus sp.; dermal, occlusive, New Zealand): > 10000 mg/kg | LD50 (Rattus norvegicus [2]; oral, gavage, Sprague-Dawley): > 50100 mg/kg | LOAEL (Rattus norvegicus [2]; [10]): 75 mg/kg-day | NOAEL (Rattus norvegicus [2]; [10]): 25 mg/kg-day | NOAEL (Rattus norvegicus [2]; developmental, oral, diet, Sprague-Dawley): > 3000 ppm | NOAEL (Rattus norvegicus [2]; reproduction developmental, oral, diet, F, Sprague-Dawley): > 3000 ppm | NOAEL (Rattus norvegicus [2]; [11]): 3000 ppm | NOAEL (Rattus norvegicus [2]; [12]): 1000 ppm | NOAEL (Rattus norvegicus [2]; [13]): 3000 ppm | LOAEL (Rattus norvegicus [2]; [14]): 250 mg/kg-day | NOAEL (Rattus norvegicus [2]; [14]): 75 mg/kg-day | LD0 (Mus musculus [3]): > 5000 mg/kg

CCCCC(CC)COP(=O)(OCC(CC)CCCC)OCC(CC)CCCC (stereo not given) [Tris(2-ethylhexyl) phosphate]
LOAEL (Cavia porcellus; [15]): 9.6 mg/m3 | NOAEL (Cavia porcellus; [15]): 1.6 mg/m3 | NOAEL (Monkey): 85 mg/m3 | LOAEL (Mus musculus [1]; [16]): 4000 mg/kg-day | NOAEL (Mus musculus [1]; [16]): 2000 mg/kg-day | LD50 (Oryctolagus sp.; dermal): 20000 mg/kg | LD50 (Oryctolagus sp.; injection, intravenous): > 358 mg/kg | LD50 (Oryctolagus sp.; intertracheal): > 1810 mg/kg | LD50 (Rattus norvegicus [2]; inhalation): > 0.45 mg/L | LOAEL (Rattus norvegicus [2]; [17]): 2000 mg/kg-day | NOAEL (Rattus norvegicus [2]; [17]): 1000 mg/kg-day | NOAEL (Rattus norvegicus [2]; subchronic, duration: 30 days, oral, diet): 430 mg/kg-day

ClC1=C(Cl)[C@]2(Cl)[C@H]3[C@H]([C@@H]4C=C[C@H]3C4)[C@@]1(Cl)C2(Cl)Cl [Aldrin]
LOAEL (Rattus norvegicus [4]): 1 mg/kg-day | NOAEL (Rattus norvegicus [4]): 0.2 mg/kg-day | LOAEL (Rattus norvegicus [5]): 0.025 mg/kg-day | LOAEL (Canidae): 0.043 mg/kg-day | LOAEL (Mus musculus [6]): 2 mg/kg-day | LOAEL (Rattus norvegicus [7]; duration: 2 years, M/F, Osborne-Mendel, hepatic): 0.037 mg/kg-day

CCC[CH2][Sn]([CH2]CCC)([CH2]CCC)[O][Sn]([CH2]CCC)([CH2]CCC)[CH2]CCC [Bis(tributyltin)oxide]
LOAEL (Coturnix japonica): 16.9 mg/kg-day | NOAEL (Coturnix japonica): 6.8 mg/kg-day | LOAEL (Mus musculus [8]): 35 mg/kg-day | NOAEL (Mus musculus [8]): 23.4 mg/kg-day | NOAEL (Rattus norvegicus [7]; duration: 6 months): 0.025 mg/kg-day | NOAEL (Rattus norvegicus [7]; duration: 18 months): 0.025 mg/kg-day

CCC(C)(CCC(C)C)C(=O)O (stereo not given) [Neodecanoic acid]
LD50 (Cavia porcellus; acute, Inhalation): > 511 mg/m3 | LC50 (Cavia sp.): > 511 mg/m3 | LD50 (Cavia sp.): > 511 mg/m3 | LD50 (Mus musculus [1]; Inhalation, Swiss): > 511 mg/m3 | LC50 (Mus musculus [1]; Inhalation, Swiss albino): > 511 mg/m3 | LC50 (Mus musculus [1]; inhalation, Swiss): > 3 mg/L | LD50 (Mus musculus [1]; inhalation, Swiss): > 3 mg/L | LD50 (Oryctolagus sp.; dermal): > 3160 mg/kg | LD50 (Oryctolagus sp.; dermal, occlusive): > 3160 mg/kg | NOAEL (Oryctolagus sp.; repeat dose other, dermal, M): 2280 mg/kg-day | LC50 (Rattus norvegicus [2]; Inhalation, Wistar): > 511 mg/m3 | LD50 (Rattus norvegicus [2]; Inhalation, Wistar): > 511 mg/m3 | LC50 (Rattus norvegicus [2]; inhalation, Wistar): > 3 mg/L | LD50 (Rattus norvegicus [2]; inhalation, Wistar): > 3 mg/L | NOAEL (Rattus norvegicus [2]; [11]): 1500 ppm | NOAEL (Rattus norvegicus [2]; [12]): 1500 ppm | NOAEL (Rattus norvegicus [2]; [13]): 1500 ppm | LOAEL (Rattus norvegicus [2]; [18]): 144 mg/kg-day | NOAEL (Rattus norvegicus [2]; [18]): 48 mg/kg-day
